Converted amounts (≈) assume the structure as drawn.
What was measured:
Escherichia coli [1] = assay: Antibacterial activity against extended-spectrum beta-lactamase deficient Escherichia coli 1515 after 18 hrs by CLSI broth microdilution method; assay type: functional; settings: Escherichia coli, 1515, 18 h
Staphylococcus aureus [2] = assay: Antibacterial activity against methicillin-resistant Staphylococcus aureus ATCC 33591 after 18 hrs by CLSI broth microdilution method; assay type: functional; settings: ATCC 33591, 18 h
[3] = tested on: Stenotrophomonas maltophilia; assay: Antibacterial activity against Stenotrophomonas maltophilia ATCC 13636 after 18 hrs by CLSI broth microdilution method; assay type: functional; settings: ATCC 13636, 18 h
Klebsiella aerogenes = assay: Antibacterial activity against Enterobacter aerogenes ATCC 13048 after 18 hrs by CLSI broth microdilution method; assay type: functional; settings: ATCC 13048, 18 h
Pseudomonas aeruginosa [4] = assay: Antibacterial activity against Pseudomonas aeruginosa ATCC 27853 after 18 hrs by CLSI broth microdilution method; assay type: functional; settings: ATCC 27853, 18 h
Klebsiella pneumoniae [5] = assay: Antibacterial activity against new delhi metallo-beta-lactamase-1 harboring Klebsiella pneumoniae ATCC BAA-2146 after 18 hrs by CLSI broth microdilution method; assay type: functional; settings: ATCC BAA-2146, 18 h
Serratia marcescens = assay: Antibacterial activity against Serratia marcescens ATCC 21074 after 18 hrs by CLSI broth microdilution method; assay type: functional; settings: ATCC 21074, 18 h
Providencia rettgeri = assay: Antibacterial activity against Providencia rettgeri ATCC 31052 after 18 hrs by CLSI broth microdilution method; assay type: functional; settings: ATCC 31052, 18 h
Enterococcus faecalis [6] = assay: Antibacterial activity against vancomycin-sensitive Enterococcus faecalis ATCC 29212 after 18 hrs by CLSI broth microdilution method; assay type: functional; settings: ATCC 29212, 18 h
Citrobacter freundii = assay: Antibacterial activity against Citrobacter freundii ATCC 43864 after 18 hrs by CLSI broth microdilution method; assay type: functional; settings: ATCC 43864, 18 h
Pseudomonas aeruginosa [7] = assay: Antibacterial activity against Pseudomonas aeruginosa 12-16 after 18 hrs by CLSI broth microdilution method; assay type: functional; settings: 12-16, 18 h
[8] = tested on: Staphylococcus epidermidis; assay: Antibacterial activity against methicillin-sensitive Staphylococcus epidermidis 12-6 after 18 hrs by CLSI broth microdilution method; assay type: functional; settings: 12-6, 18 h
Proteus mirabilis = assay: Antibacterial activity against Proteus mirabilis 12-6 after 18 hrs by CLSI broth microdilution method; assay type: functional; settings: 12-6, 18 h
Enterobacter cloacae = assay: Antibacterial activity against Enterobacter cloacae ATCC 43560 after 18 hrs by CLSI broth microdilution method; assay type: functional; settings: ATCC 43560, 18 h
Enterococcus faecium [9] = assay: Antibacterial activity against vancomycin-resistant Enterococcus faecium ATCC 700221 after 18 hrs by CLSI broth microdilution method; assay type: functional; settings: ATCC 700221, 18 h
Enterococcus faecium [10] = assay: Antibacterial activity against vancomycin-sensitive Enterococcus faecium 12-3 after 18 hrs by CLSI broth microdilution method; assay type: functional; settings: 12-3, 18 h
Staphylococcus aureus [11] = assay: Antibacterial activity against methicillin-sensitive Staphylococcus aureus 15 after 18 hrs by CLSI broth microdilution method; assay type: functional; settings: Staphylococcus aureus, 15, 18 h
Escherichia coli [12] = assay: Antibacterial activity against extended-spectrum beta-lactamase harboring Escherichia coli 12-15 after 18 hrs by CLSI broth microdilution method; assay type: functional; settings: 12-15, 18 h
Enterococcus faecalis [13] = assay: Antibacterial activity against vancomycin-resistant Enterococcus faecalis ATCC 51299 after 18 hrs by CLSI broth microdilution method; assay type: functional; settings: ATCC 51299, 18 h
Staphylococcus aureus [14] = assay: Antibacterial activity against methicillin-resistant Staphylococcus aureus 12-33 after 18 hrs by CLSI broth microdilution method; assay type: functional; settings: 12-33, 18 h
Klebsiella pneumoniae [15] = assay: Antibacterial activity against extended-spectrum beta-lactamase deficient Klebsiella pneumoniae 7 after 18 hrs by CLSI broth microdilution method; assay type: functional; settings: Klebsiella pneumoniae, 7, 18 h
Enterococcus faecium [16] = assay: Antibacterial activity against vancomycin-resistant Enterococcus faecium 12-1 after 18 hrs by CLSI broth microdilution method; assay type: functional; settings: 12-1, 18 h
Enterococcus faecalis [17] = assay: Antibacterial activity against vancomycin-sensitive Enterococcus faecalis 12-5 after 18 hrs by CLSI broth microdilution method; assay type: functional; settings: 12-5, 18 h
[18] = tested on: Staphylococcus epidermidis; assay: Antibacterial activity against methicillin-resistant Staphylococcus epidermidis 12-8 after 18 hrs by CLSI broth microdilution method; assay type: functional; settings: 12-8, 18 h
Staphylococcus aureus [19] = assay: Antibacterial activity against methicillin-sensitive Staphylococcus aureus 12-28 after 18 hrs by CLSI broth microdilution method; assay type: functional; settings: 12-28, 18 h
Pseudomonas aeruginosa [20] = assay: Antibacterial activity against Pseudomonas aeruginosa PAO1 after 18 hrs by CLSI broth microdilution method; assay type: functional; settings: PAO1, 18 h
[21] = Cytotoxicity against HEK293T cells assessed as reduction in cell viability after 48 hrs by MTS assay; assay type: cell-based, HEK-293T; settings: human
Klebsiella pneumoniae [22] = assay: Antibacterial activity against extended-spectrum beta-lactamase deficient Klebsiella pneumoniae 12-4 after 18 hrs by CLSI broth microdilution method; assay type: functional; settings: 12-4, 18 h
Escherichia coli [23] = assay: Antibacterial activity against extended-spectrum beta-lactamase deficient Escherichia coli ATCC 25922 after 18 hrs by CLSI broth microdilution method; assay type: functional; settings: ATCC 25922, 18 h
Klebsiella pneumoniae [24] = assay: Antibacterial activity against extended-spectrum beta-lactamase harboring Klebsiella pneumoniae ATCC 700603 after 18 hrs by CLSI broth microdilution method; assay type: functional; settings: Klebsiella pneumoniae, 700603, 18 h
Escherichia coli [25] = assay: Antibacterial activity against extended-spectrum beta-lactamase deficient Escherichia coli 12-14 after 18 hrs by CLSI broth microdilution method; assay type: functional; settings: 12-14, 18 h
[26] = tested on: Acinetobacter calcoaceticus; assay: Antibacterial activity against Acinetobacter calcoaceticus ATCC 19606 after 18 hrs by CLSI broth microdilution method; assay type: functional; settings: ATCC 19606, 18 h
Proteus vulgaris = assay: Antibacterial activity against Proteus vulgaris ATCC 29905 after 18 hrs by CLSI broth microdilution method; assay type: functional; settings: ATCC 29905, 18 h
Enterococcus faecalis [27] = assay: Antibacterial activity against vancomycin-resistant Enterococcus faecalis 09-9 after 18 hrs by CLSI broth microdilution method; assay type: functional; settings: 09-9, 18 h
[28] = tested on: Staphylococcus epidermidis; assay: Antibacterial activity against methicillin-sensitive Staphylococcus epidermidis ATCC 12228 after 18 hrs by CLSI broth microdilution method; assay type: functional; settings: ATCC 12228, 18 h
Klebsiella pneumoniae [29] = assay: Antibacterial activity against extended-spectrum beta-lactamase harboring Klebsiella pneumoniae 12-8 after 18 hrs by CLSI broth microdilution method; assay type: functional; settings: 12-8, 18 h
Staphylococcus aureus [30] = assay: Antibacterial activity against methicillin-sensitive Staphylococcus aureus ATCC 29213 after 18 hrs by CLSI broth microdilution method; assay type: functional; settings: ATCC 29213, 18 h

Structure (SMILES)	MIC (Escherichia coli [1])	MIC (Staphylococcus aureus [2])	MIC [3]	MIC (Klebsiella aerogenes)	MIC (Pseudomonas aeruginosa [4])	MIC (Klebsiella pneumoniae [5])	MIC (Serratia marcescens)	MIC (Providencia rettgeri)	MIC (Enterococcus faecalis [6])	MIC (Citrobacter freundii)	MIC (Pseudomonas aeruginosa [7])	MIC [8]	MIC (Proteus mirabilis)	MIC (Enterobacter cloacae)	MIC (Enterococcus faecium [9])	MIC (Enterococcus faecium [10])	MIC (Staphylococcus aureus [11])	MIC (Escherichia coli [12])	MIC (Enterococcus faecalis [13])	MIC (Staphylococcus aureus [14])	further results
CCC(C)NC(=N)c1ccc2cc(-c3ccc(-c4cc5ccc(C(=N)NC(C)CC)cc5[nH]4)cc3)[nH]c2c1 (centres undefined)	4 µg/mL (≈ 7.93 µM)	0.5 µg/mL (≈ 0.991 µM)	4 µg/mL (≈ 7.93 µM)	4 µg/mL (≈ 7.93 µM)	4 µg/mL (≈ 7.93 µM)	4 µg/mL (≈ 7.93 µM)	8 µg/mL (≈ 15.9 µM)	4 µg/mL (≈ 7.93 µM)	1 µg/mL (≈ 1.98 µM)	4 µg/mL (≈ 7.93 µM)	16 µg/mL (≈ 31.7 µM)	1 µg/mL (≈ 1.98 µM)	16 µg/mL (≈ 31.7 µM)	4 µg/mL (≈ 7.93 µM)	2 µg/mL (≈ 3.96 µM)	1 µg/mL (≈ 1.98 µM)	0.5 µg/mL (≈ 0.991 µM)	4 µg/mL (≈ 7.93 µM)	2 µg/mL (≈ 3.96 µM)	0.5 µg/mL (≈ 0.991 µM)	MIC (Klebsiella pneumoniae [15]): 4 µg/mL (≈ 7.93 µM); MIC (Enterococcus faecium [16]): 2 µg/mL (≈ 3.96 µM); MIC (Enterococcus faecalis [17]): 2 µg/mL (≈ 3.96 µM); MIC [18]: 0.5 µg/mL (≈ 0.991 µM); MIC (Staphylococcus aureus [19]): 0.5 µg/mL (≈ 0.991 µM); MIC (Pseudomonas aeruginosa [20]): 16 µg/mL (≈ 31.7 µM); CC50 at 48 h [21]: 15.4 µg/mL (≈ 30.6 µM); MIC (Klebsiella pneumoniae [22]): 4 µg/mL (≈ 7.93 µM); MIC (Escherichia coli [23]): 4 µg/mL (≈ 7.93 µM); MIC (Klebsiella pneumoniae [24]): 8 µg/mL (≈ 15.9 µM); MIC (Escherichia coli [25]): 4 µg/mL (≈ 7.93 µM); MIC [26]: 16 µg/mL (≈ 31.7 µM); MIC (Proteus vulgaris): 4 µg/mL (≈ 7.93 µM); MIC (Enterococcus faecalis [27]): 2 µg/mL (≈ 3.96 µM); MIC [28]: 0.25 µg/mL (≈ 0.495 µM); MIC (Klebsiella pneumoniae [29]): 4 µg/mL (≈ 7.93 µM); MIC (Staphylococcus aureus [30]): 0.5 µg/mL (≈ 0.991 µM)
CN1CCN(C(=N)c2ccc3cc(-c4ccc(-c5cc6ccc(C(=N)N7CCN(C)CC7)cc6[nH]5)cc4)[nH]c3c2)CC1	8 µg/mL (≈ 14.3 µM)	1 µg/mL (≈ 1.79 µM)	128 µg/mL (≈ 229 µM)	16 µg/mL (≈ 28.6 µM)	64 µg/mL (≈ 115 µM)	16 µg/mL (≈ 28.6 µM)	> 128 µg/mL	8 µg/mL (≈ 14.3 µM)	8 µg/mL (≈ 14.3 µM)	8 µg/mL (≈ 14.3 µM)	> 128 µg/mL	2 µg/mL (≈ 3.58 µM)	> 128 µg/mL	8 µg/mL (≈ 14.3 µM)	8 µg/mL (≈ 14.3 µM)	8 µg/mL (≈ 14.3 µM)	1 µg/mL (≈ 1.79 µM)	8 µg/mL (≈ 14.3 µM)	64 µg/mL (≈ 115 µM)	1 µg/mL (≈ 1.79 µM)	MIC (Klebsiella pneumoniae [15]): 16 µg/mL (≈ 28.6 µM); MIC (Enterococcus faecium [16]): 8 µg/mL (≈ 14.3 µM); MIC (Enterococcus faecalis [17]): 64 µg/mL (≈ 115 µM); MIC [18]: 1 µg/mL (≈ 1.79 µM); MIC (Staphylococcus aureus [19]): 1 µg/mL (≈ 1.79 µM); MIC (Pseudomonas aeruginosa [20]): 128 µg/mL (≈ 229 µM); CC50 at 48 h [21]: 18.9 µg/mL (≈ 33.9 µM); MIC (Klebsiella pneumoniae [22]): 64 µg/mL (≈ 115 µM); MIC (Escherichia coli [23]): 8 µg/mL (≈ 14.3 µM); MIC (Klebsiella pneumoniae [24]): 64 µg/mL (≈ 115 µM); MIC (Escherichia coli [25]): 8 µg/mL (≈ 14.3 µM); MIC [26]: 128 µg/mL (≈ 229 µM); MIC (Proteus vulgaris): 16 µg/mL (≈ 28.6 µM); MIC (Enterococcus faecalis [27]): 8 µg/mL (≈ 14.3 µM); MIC [28]: 1 µg/mL (≈ 1.79 µM); MIC (Klebsiella pneumoniae [29]): 16 µg/mL (≈ 28.6 µM); MIC (Staphylococcus aureus [30]): 1 µg/mL (≈ 1.79 µM)

Reference: ChEMBL document CHEMBL4229379, “Synthesis and structure-activity relationship of novel bisindole amidines active against MDR Gram-positive and Gram-negative bacteria” (Eur J Med Chem, 2018)
